Results as given in publication PMC10594211, “Characterization of pyridylpiperazine-based efflux pump inhibitors for Acinetobacter baumannii” (JAC-Antimicrobial Resistance, 2023).

How the values were obtained:
AcrB (AcrAB-TolC) = biological target: T1, AcrB (AcrAB-TolC) (Escherichia coli, UniProt P31224); assay: antibiotic boosting in E. coli cells; type: cell-based
T1 construct: full-length RND pump in E. coli cells; strain only in supplement; with Multidrug efflux pump subunit AcrA; Outer membrane protein TolC
T1 sequence (P0AE06 25-397): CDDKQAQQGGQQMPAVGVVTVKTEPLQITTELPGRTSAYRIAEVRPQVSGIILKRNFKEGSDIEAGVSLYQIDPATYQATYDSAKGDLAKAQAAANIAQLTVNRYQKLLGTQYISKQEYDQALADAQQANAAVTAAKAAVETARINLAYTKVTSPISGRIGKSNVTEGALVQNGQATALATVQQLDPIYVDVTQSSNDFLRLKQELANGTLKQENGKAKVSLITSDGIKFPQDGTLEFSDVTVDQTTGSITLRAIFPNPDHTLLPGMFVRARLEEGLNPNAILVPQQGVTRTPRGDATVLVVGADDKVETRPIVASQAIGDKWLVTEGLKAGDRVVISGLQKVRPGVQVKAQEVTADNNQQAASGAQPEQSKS
T1 sequence (P02930 23-493, further chain): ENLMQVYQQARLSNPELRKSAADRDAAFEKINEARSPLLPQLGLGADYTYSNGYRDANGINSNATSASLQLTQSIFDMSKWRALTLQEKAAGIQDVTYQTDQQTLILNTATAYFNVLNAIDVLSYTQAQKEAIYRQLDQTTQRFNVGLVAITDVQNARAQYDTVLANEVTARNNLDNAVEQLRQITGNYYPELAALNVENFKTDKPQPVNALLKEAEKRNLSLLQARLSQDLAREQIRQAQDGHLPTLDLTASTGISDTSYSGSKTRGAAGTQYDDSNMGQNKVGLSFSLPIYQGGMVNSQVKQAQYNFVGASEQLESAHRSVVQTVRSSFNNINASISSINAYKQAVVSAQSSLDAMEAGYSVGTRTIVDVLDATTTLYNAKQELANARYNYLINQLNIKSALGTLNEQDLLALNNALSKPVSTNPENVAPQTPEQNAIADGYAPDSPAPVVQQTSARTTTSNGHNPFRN
T1 sequence (P31224 whole entry): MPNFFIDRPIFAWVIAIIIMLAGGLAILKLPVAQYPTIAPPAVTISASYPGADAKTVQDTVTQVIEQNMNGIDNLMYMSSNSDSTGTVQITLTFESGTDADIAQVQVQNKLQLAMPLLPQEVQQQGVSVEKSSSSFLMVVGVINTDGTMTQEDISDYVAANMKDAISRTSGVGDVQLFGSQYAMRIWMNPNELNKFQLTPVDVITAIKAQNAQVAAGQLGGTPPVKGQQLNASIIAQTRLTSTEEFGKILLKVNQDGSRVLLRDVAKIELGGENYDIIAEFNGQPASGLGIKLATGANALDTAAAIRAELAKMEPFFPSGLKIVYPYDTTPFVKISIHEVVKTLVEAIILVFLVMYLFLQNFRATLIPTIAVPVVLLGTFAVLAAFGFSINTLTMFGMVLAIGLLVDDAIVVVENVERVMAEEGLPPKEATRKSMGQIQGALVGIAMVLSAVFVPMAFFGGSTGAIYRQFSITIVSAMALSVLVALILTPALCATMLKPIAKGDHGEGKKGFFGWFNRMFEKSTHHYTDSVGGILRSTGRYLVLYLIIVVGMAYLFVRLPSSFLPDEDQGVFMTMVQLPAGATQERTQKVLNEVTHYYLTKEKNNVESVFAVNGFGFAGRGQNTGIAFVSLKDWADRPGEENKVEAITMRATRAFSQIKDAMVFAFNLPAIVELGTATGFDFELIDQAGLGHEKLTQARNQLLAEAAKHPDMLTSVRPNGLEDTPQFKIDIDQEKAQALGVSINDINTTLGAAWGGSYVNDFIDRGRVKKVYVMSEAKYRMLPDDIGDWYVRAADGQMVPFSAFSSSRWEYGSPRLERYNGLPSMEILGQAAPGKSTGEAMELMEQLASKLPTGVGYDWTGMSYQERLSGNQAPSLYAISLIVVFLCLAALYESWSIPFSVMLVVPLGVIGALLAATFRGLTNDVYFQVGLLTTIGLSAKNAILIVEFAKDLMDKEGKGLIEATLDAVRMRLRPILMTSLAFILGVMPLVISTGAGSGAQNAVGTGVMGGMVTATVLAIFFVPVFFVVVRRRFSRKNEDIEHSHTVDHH

AdeJ = biological target: T2, AdeJ (Acinetobacter baumannii, UniProt Q2FD94); assay: antibiotic MIC and checkerboard in A. baumannii cells; type: cell-based; details: 40 µM EPI
T2 construct: native chromosomal AdeJ in A. baumannii cells (other RND pumps present); isogenic point mutants by allelic exchange; with Membrane fusion protein AdeI; Outer membrane efflux protein AdeK

AdeFGH (AdeG) = biological target: T3, AdeFGH (AdeG) (Acinetobacter baumannii, UniProt A0A090C131); assay: antibiotic MIC in E. coli ΔacrAB expressing adeFGH (REMA); type: cell-based, Escherichia coli ΔacrAB; details: 40 µM EPI; chloramphenicol, oxacillin, SDS
T3 construct: adeFGH operon under acrA promoter in chromosome of E. coli ΔacrAB; tripartite RND pump; with Membrane fusion protein AdeF; Outer membrane efflux protein AdeH
T3 sequence (A0A090C131 entry or part of it): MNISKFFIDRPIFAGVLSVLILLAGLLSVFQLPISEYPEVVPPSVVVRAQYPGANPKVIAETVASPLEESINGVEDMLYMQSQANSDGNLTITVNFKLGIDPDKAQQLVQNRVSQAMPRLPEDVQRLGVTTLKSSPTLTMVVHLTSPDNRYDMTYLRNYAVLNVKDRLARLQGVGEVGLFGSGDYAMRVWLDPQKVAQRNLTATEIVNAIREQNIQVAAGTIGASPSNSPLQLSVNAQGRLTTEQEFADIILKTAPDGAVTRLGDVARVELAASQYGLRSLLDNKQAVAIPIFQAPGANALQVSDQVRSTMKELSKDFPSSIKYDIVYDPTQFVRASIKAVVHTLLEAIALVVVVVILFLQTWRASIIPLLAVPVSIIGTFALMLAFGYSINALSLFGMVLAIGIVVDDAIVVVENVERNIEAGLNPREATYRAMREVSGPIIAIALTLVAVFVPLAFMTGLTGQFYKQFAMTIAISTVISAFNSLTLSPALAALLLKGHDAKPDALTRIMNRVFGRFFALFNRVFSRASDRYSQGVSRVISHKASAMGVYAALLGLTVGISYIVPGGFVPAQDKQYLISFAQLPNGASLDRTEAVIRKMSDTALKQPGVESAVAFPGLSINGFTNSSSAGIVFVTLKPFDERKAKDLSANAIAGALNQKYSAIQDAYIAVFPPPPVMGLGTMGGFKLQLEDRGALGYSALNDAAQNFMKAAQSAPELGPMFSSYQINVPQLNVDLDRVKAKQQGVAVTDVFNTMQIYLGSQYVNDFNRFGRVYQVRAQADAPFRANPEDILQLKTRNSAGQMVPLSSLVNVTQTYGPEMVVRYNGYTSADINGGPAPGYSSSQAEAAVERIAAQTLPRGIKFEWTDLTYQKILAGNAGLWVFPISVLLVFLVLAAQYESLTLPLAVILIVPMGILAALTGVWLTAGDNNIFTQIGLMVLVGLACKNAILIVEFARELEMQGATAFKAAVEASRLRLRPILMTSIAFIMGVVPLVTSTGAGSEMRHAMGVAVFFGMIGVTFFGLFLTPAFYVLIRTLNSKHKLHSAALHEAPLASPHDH
T3 sequence (A0A0N9Q906 entry or part of it, further chain): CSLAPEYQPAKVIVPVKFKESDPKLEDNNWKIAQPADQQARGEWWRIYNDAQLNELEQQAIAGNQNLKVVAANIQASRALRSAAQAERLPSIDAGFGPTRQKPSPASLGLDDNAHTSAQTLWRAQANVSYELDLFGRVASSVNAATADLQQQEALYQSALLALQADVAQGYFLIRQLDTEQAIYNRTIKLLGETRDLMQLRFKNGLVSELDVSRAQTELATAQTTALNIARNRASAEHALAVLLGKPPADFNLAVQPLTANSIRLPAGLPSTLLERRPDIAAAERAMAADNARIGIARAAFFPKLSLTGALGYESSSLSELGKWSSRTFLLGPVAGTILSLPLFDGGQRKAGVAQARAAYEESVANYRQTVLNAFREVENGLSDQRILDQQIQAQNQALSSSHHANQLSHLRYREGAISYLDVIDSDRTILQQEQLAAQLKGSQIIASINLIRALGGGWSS
T3 sequence (A0A0N9QP12 entry or part of it, further chain): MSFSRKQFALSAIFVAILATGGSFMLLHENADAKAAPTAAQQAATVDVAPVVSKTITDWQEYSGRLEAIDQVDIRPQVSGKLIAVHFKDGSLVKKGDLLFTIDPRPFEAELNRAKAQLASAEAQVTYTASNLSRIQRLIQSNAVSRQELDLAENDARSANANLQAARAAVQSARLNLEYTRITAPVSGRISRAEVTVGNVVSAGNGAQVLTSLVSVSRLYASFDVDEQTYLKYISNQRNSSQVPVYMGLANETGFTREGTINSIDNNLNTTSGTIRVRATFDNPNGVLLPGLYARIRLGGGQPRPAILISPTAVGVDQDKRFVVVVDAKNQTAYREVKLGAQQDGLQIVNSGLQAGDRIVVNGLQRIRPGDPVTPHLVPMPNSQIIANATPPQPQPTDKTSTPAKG

AdeIJK (AdeJ) = biological target: T4, AdeIJK (AdeJ) (Acinetobacter baumannii, UniProt Q2FD94); assay: antibiotic MIC in E. coli ΔacrAB expressing adeIJK (REMA); type: cell-based, Escherichia coli; details: 40 µM EPI; fusidic acid, novobiocin, erythromycin, SDS
T4 construct: adeIJK operon under acrA promoter in chromosome of E. coli ΔacrAB; tripartite RND pump; with Membrane fusion protein AdeI; Outer membrane efflux protein AdeK

Structure (SMILES) | EC90 (AcrB (AcrAB-TolC)) | MIC (AdeJ) | MIC (AdeFGH (AdeG)) | MIC (AdeIJK (AdeJ))
NCc1cccc(-c2ccc3nc(N4CCNCC4)c(Cl)cc3c2)c1 [compound 1, BDM91531] | 240 nM | antibiotic boosting in A. baumannii by BDM91531, BDM91892 or PAβN is through AdeIJK inhibition | both BDM91531 and BDM91892 can inhibit the activity of AdeFGH and AdeIJK | both BDM91531 and BDM91892 can inhibit the activity of AdeFGH and AdeIJK
NCCc1ccccc1C#Cc1cnc(N2CCNCC2)c(Cl)c1 [compound 11, BDM91892] | 1500 nM | antibiotic boosting in A. baumannii by BDM91531, BDM91892 or PAβN is through AdeIJK inhibition | both BDM91531 and BDM91892 can inhibit the activity of AdeFGH and AdeIJK | both BDM91531 and BDM91892 can inhibit the activity of AdeFGH and AdeIJK
